# Assay results reported in paper PMC6234229, “The role of loops B and C in determining the potentiation of GABAA receptors by midazolam” (Pharmacology Research & Perspectives, 2018).
# Key:
# Assay in all cases: Midazolam potentiation of EC10 GABA currents, whole-cell patch clamp, HEK293T
# Format in all cases: cell-based
# [1] = target: T1, α6(N204I)β2γ2 GABAA receptor (Homo sapiens, UniProt P18507+P47870+Q16445, N223I)
# T1 construct: expressed in transfected cells; host or cells: HEK293T
# Excerpt: (§1) Human (Homo sapiens) GABAA subunits (α1‐6, β2, γ2s) were subcloned into pcDNA3.1+ vectors with a cytomegalovirus (CMV) promoter. The hβ2 and hα3 sequences were humanized rat (Rattus norvegicus) cDNA with amino acid substitutions made to match the human protein sequence. The α1‐3, α5, β2, and γ2s subunits were a generous gift from Neil L. Harrison (Columbia University Medical Center, NY). The α4 subunit was obtained from GenScript (Piscataway, NJ), and the α6 subunit was a generous gift from Robert L. McDonald (Vanderbilt University, TN). All point mutations (listed in Figure 1C) were introduced using the QuikChange Lightening site‐directed mutagenesis kit (Agilent Technologies, Santa Clara, CA) according to the manufacturer's instructions and were confirmed by sequencing (Eurofins MWG Operon, Louisville, KY).
# (§2) Human embryonic kidney cells containing the SV40 T‐antigen (HEK293T) were acquired from American Type Culture Collection (ATCC®, Manassas, VA), catalogue number, CRL3216. HEK293T cells were maintained at 37°C and 5% CO2 in Eagle Minimum Essential Medium (MEM) supplemented with 5% fetal bovine serum (Atlanta Biologicals Inc., Flowery Branch, GA), 40 μM L‐glutamine, 100 U/mL penicillin and 0.1 mM streptomycin. Cells were passaged regularly when they reached 70% confluency using trypsin. Cells were not passaged more than 22 times. New cells were revived from frozen stocks at passage 2‐4. Cells used for in vitro electrophysiology experiments were grown on poly‐D‐lysine‐coated glass coverslips (No.2, VWR, Radnor, PA) and transfected with X‐tremeGENE (Roche Diagnostics, Indianapolis, IN) with the desired receptor subunit cDNAs at a 1:1:1 ratio to express αxβ2γ2s receptors (2 μg total cDNA) and with 0.5 μg green fluorescent protein (GFP) as an expression marker. The γ2s incorporation into receptors was tested with zinc inhibition assays regularly.24 Patch clamp experiments were performed on cells at 24‐72 hours post‐transfection. All experiments were performed at 22°C. Experiments consisted of at least five cells recorded per day from at least two transfections across 3‐4 days to control for cell health and transfection efficiency. At least three cells expressing wild‐type receptors were recorded on days that mutant receptors were tested to provide a time‐matched expression control. All reagents were purchased from Sigma‐Aldrich (St. Louis, MO) unless otherwise stated.
# (§3) Extracellular solution contained 161 mM NaCl, 3 mM KCl, 1 mM MgCl2, 1.5 mM CaCl2, 10 mM HEPES, and 6 mM D‐glucose, adjusted to pH 7.4 with NaOH (320‐330 mOsm). […] The perfusion system was controlled by protocols written in pClamp 9 (Molecular Devices, LLC., Sunnyvale, CA). Whole‐cell currents were recorded at ‐60 mV, filtered at 100 Hz and sampled at 200 Hz with a MultiClamp 700B amplifier (Molecular Devices, LLC) and DigiData 1322A (Molecular Devices, LLC) digitizer. […] Cells were recorded with the midazolam protocol no more than two times to avoid desensitization and incomplete washout or irreversible modulation.
# (§4) Recordings were analyzed using MATLAB (Math Works, Inc., Natick, MA). […] The maximum peak current, EC50 and Hill coefficient were estimated for assays from each cell. When Hill parameters are estimated from whole‐cell recordings, the changes in the parameters across receptor conditions can be ascribed to the following changes in receptor physiology. Changes in maximum current can be due to changes in the single‐channel conductance or the rate of desensitization. Changes in cell surface receptor expression can cause minor changes in maximum current, but are unlikely to occur in the time course of our experimental protocol. […] More often minor changes in the Hill coefficient are attributed to the altered homogeneity in the receptor population expressed by the HEK293T cell. For example, a shallower Hill coefficient could be caused by a shift in the population of receptors from mostly αβγ receptors to a combination of both αβ and αβγ receptors.
# [2] = target: T2, α1(H102R)β2γ2 GABAA receptor (Homo sapiens, UniProt P14867+P18507+P47870, H129R)
# T2 construct: expressed in transfected cells; host or cells: HEK293T
# Excerpt: as §1, §2, §3, §4
# [3] = target: T3, α2(S205I)β2γ2 GABAA receptor (Homo sapiens, UniProt P18507+P47869+P47870, S233I)
# T3 construct: expressed in transfected cells; host or cells: HEK293T
# Excerpt: as §1, §2, §3, §4
# [4] = target: T4, α1(T163P)β2γ2 GABAA receptor (Homo sapiens, UniProt P14867+P18507+P47870, T190P)
# T4 construct: expressed in transfected cells; host or cells: HEK293T
# Excerpt: as §1, §2, §3, §4
# α6β2γ2 GABAA receptor = target: T5, α6β2γ2 GABAA receptor (Homo sapiens, UniProt P18507+P47870+Q16445); conditions: for Midazolam potentiation (%): α6β2γ2
# T5 construct: expressed in transfected cells; host or cells: HEK293T
# Excerpt: as §1, §2, §3, §4
# [5] = target: T6, α5(P166T)β2γ2 GABAA receptor (Homo sapiens, UniProt P18507+P31644+P47870, P197T)
# T6 construct: expressed in transfected cells; host or cells: HEK293T
# Excerpt: as §1, §2, §3, §4
# α4β2γ2 GABAA receptor = target: T7, α4β2γ2 GABAA receptor (Homo sapiens, UniProt P18507+P47870+P48169); conditions: for Midazolam potentiation (%): α4β2γ2
# T7 construct: expressed in transfected cells; host or cells: HEK293T
# Excerpt: as §1, §2, §3, §4
# T4 sequence (P14867 28-456 T190P): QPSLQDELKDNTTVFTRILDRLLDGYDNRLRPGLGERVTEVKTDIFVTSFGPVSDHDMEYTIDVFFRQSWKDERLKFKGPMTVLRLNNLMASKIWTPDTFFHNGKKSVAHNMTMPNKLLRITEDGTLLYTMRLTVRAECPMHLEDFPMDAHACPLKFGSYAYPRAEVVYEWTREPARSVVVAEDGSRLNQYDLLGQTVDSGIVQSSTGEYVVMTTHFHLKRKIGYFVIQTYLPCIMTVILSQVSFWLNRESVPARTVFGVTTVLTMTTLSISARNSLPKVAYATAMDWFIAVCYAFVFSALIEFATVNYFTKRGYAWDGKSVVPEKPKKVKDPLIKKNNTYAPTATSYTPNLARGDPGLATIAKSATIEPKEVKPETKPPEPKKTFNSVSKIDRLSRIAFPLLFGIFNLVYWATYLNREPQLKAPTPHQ
# T4 sequence (P47870 25-512 limits assumed): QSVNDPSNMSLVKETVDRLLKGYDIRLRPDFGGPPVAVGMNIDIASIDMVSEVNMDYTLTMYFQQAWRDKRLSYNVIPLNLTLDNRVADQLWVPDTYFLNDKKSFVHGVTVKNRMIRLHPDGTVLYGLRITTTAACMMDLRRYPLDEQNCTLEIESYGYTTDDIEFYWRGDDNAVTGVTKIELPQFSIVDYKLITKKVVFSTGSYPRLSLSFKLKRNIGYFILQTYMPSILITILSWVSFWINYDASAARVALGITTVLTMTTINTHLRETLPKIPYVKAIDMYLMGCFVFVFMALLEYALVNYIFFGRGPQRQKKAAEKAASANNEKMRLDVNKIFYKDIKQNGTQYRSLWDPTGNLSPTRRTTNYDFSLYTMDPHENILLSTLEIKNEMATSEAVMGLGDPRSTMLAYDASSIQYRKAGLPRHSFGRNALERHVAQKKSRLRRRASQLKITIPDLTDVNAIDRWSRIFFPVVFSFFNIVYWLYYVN
# T4 sequence (P18507 40-467 isoform P18507-1 limits assumed, stated change not applied): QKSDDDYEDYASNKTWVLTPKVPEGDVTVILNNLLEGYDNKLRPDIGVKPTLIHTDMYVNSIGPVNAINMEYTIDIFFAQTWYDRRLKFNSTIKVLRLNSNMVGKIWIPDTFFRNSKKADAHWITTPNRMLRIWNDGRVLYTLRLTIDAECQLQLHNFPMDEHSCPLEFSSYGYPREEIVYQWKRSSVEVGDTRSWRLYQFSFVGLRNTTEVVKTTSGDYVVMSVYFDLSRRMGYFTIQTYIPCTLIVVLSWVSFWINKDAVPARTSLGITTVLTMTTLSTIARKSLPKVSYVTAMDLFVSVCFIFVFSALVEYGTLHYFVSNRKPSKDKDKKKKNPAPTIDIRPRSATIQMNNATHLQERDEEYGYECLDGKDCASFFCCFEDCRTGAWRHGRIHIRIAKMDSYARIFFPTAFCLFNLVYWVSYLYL
# T5 sequence (Q16445 20-453): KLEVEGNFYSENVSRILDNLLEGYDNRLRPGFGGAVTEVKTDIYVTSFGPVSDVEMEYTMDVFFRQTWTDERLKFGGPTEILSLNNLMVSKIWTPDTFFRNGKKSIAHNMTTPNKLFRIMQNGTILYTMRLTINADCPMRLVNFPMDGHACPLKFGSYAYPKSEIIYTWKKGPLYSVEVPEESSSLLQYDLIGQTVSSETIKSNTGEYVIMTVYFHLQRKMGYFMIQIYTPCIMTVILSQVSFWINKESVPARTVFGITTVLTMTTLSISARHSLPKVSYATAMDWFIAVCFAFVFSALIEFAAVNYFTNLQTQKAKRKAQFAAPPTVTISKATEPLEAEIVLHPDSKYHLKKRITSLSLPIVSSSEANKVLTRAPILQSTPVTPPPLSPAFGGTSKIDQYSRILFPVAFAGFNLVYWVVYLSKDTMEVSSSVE
# T5 sequence (P47870 26-474 isoform P47870-1 limits assumed): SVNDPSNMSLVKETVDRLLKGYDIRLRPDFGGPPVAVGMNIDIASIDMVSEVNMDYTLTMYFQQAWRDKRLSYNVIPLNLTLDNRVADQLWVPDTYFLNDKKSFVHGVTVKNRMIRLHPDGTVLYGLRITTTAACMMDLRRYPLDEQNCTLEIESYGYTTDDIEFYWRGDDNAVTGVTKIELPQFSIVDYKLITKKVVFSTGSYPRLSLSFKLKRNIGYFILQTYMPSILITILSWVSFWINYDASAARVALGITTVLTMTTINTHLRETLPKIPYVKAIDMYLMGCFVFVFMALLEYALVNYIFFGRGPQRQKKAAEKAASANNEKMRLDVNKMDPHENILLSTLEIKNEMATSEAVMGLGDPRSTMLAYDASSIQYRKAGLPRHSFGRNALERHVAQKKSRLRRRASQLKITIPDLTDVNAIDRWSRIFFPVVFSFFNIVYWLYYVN
# T5 sequence (P18507 40-467 isoform P18507-1 limits assumed): as the sequence (P18507 40-467 isoform P18507-1 limits assumed, stated change not applied) above
# T7 sequence (P48169 36-554): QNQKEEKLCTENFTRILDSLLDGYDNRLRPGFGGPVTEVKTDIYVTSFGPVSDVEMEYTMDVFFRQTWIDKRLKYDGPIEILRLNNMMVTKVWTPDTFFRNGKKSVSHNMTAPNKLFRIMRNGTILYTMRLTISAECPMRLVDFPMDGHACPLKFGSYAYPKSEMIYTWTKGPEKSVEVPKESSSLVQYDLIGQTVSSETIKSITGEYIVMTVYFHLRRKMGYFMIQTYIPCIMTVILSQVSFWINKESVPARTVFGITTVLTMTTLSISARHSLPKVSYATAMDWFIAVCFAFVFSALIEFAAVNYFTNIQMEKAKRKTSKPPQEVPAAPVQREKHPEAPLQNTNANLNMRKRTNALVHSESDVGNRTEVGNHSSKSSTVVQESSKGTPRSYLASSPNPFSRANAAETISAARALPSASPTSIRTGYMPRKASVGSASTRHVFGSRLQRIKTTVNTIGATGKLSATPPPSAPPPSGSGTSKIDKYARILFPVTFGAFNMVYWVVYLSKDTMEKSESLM
# T7 sequence (P47870 26-474 isoform P47870-1 limits assumed): as the sequence (P47870 26-474 isoform P47870-1 limits assumed) above
# T7 sequence (P18507 40-467 isoform P18507-1 limits assumed): as the sequence (P18507 40-467 isoform P18507-1 limits assumed, stated change not applied) above
smiles,measurement,setting,value
Cc1ncc2n1-c1ccc(Cl)cc1C(c1ccccc1F)=NC2 [midazolam],responsiveness to midazolam potentiation,[1],failed to convey any notable midazolam potentiation
same,Midazolam potentiation (%),[1]; 10 nM MDZ + EC10 GABA,11.98 ± 4.42%
same,Midazolam potentiation (%),[1]; 50 nM MDZ + EC10 GABA,19.07 ± 5.84%
same,Midazolam potentiation (%),[1]; 100 nM MDZ + EC10 GABA,25.21 ± 7.32%
same,Midazolam potentiation (%),[1]; 500 nM MDZ + EC10 GABA,25.85 ± 6.62%
same,Midazolam potentiation (%),[1]; 1000 nM MDZ + EC10 GABA,19.31 ± 7.32%
same,responsiveness to midazolam potentiation,[2],abolished the ability of receptors to respond to midazolam potentiation
same,Midazolam potentiation (%),[2]; 10 nM MDZ + EC10 GABA,8.10 ± 3.48%
same,Midazolam potentiation (%),[2]; 50 nM MDZ + EC10 GABA,13.07 ± 4.69%
same,Midazolam potentiation (%),[2]; 100 nM MDZ + EC10 GABA,16.99 ± 4.42%
same,Midazolam potentiation (%),[2]; 500 nM MDZ + EC10 GABA,26.78 ± 5.31%
same,Midazolam potentiation (%),[2]; 1000 nM MDZ + EC10 GABA,28.87 ± 6.18%
same,EC50,[3],41.7 ± 4.99 nM
same,Midazolam potentiation (%),"[3]; 10 nM MDZ + EC10 GABA, α2(S205I)",21.06 ± 6.24%
same,Midazolam potentiation (%),"[3]; 50 nM MDZ + EC10 GABA, α2(S205I)",54.26 ± 10.25%
same,Midazolam potentiation (%),"[3]; 100 nM MDZ + EC10 GABA, α2(S205I)",86.20 ± 14.74%
same,Midazolam potentiation (%),"[3]; 500 nM MDZ + EC10 GABA, α2(S205I)",102.63 ± 19.49%
same,Midazolam potentiation (%),"[3]; 1000 nM MDZ + EC10 GABA, α2(S205I)",97.62 ± 20.12%
same,Max potentiation (%),"[3]; α2(S205I), Hill fit, midazolam 10-1000 nM + EC10 GABA",116.4 ± 23.0%
same,Hill coefficient,"[3]; α2(S205I), midazolam Hill fit",1.362 ± 0.140
same,EC50,[4],61.1 ± 3.72 nM
same,Midazolam potentiation (%),"[4]; 10 nM MDZ + EC10 GABA, α1(T163P)",14.19 ± 4.15%
same,Midazolam potentiation (%),"[4]; 50 nM MDZ + EC10 GABA, α1(T163P)",49.96 ± 8.44%
same,Midazolam potentiation (%),"[4]; 100 nM MDZ + EC10 GABA, α1(T163P)",96.68 ± 15.00%
same,Midazolam potentiation (%),"[4]; 500 nM MDZ + EC10 GABA, α1(T163P)",124.27 ± 18.98%
same,Midazolam potentiation (%),"[4]; 1000 nM MDZ + EC10 GABA, α1(T163P)",123.00 ± 18.99%
same,Max potentiation (%),"[4]; α1(T163P), Hill fit, midazolam 10-1000 nM + EC10 GABA",127.7 ± 16.0 %
same,Hill coefficient,"[4]; α1(T163P), midazolam Hill fit",2.113 ± 0.154
same,Midazolam potentiation (%),α6β2γ2 GABAA receptor; 10 nM MDZ + EC10 GABA,14.66 ± 3.92%
same,Midazolam potentiation (%),α6β2γ2 GABAA receptor; 50 nM MDZ + EC10 GABA,14.55 ± 3.86%
same,Midazolam potentiation (%),α6β2γ2 GABAA receptor; 100 nM MDZ + EC10 GABA,14.58 ± 4.87%
same,Midazolam potentiation (%),α6β2γ2 GABAA receptor; 500 nM MDZ + EC10 GABA,11.15 ± 6.25%
same,Midazolam potentiation (%),α6β2γ2 GABAA receptor; 1000 nM MDZ + EC10 GABA,23.34 ± 4.23%
same,responsiveness to midazolam potentiation,α6β2γ2 GABAA receptor; wildtype α6β2γ2,no notable midazolam potentiation
same,EC50,[5],53.3 ± 5.54 nM
same,Midazolam potentiation (%),"[5]; 10 nM MDZ + EC10 GABA, α5(P166T)",13.32 ± 1.68%
same,Midazolam potentiation (%),"[5]; 50 nM MDZ + EC10 GABA, α5(P166T)",54.02 ± 5.66%
same,Midazolam potentiation (%),"[5]; 100 nM MDZ + EC10 GABA, α5(P166T)",106.37 ± 15.09%
same,Midazolam potentiation (%),"[5]; 500 nM MDZ + EC10 GABA, α5(P166T)",134.76 ± 21.59%
same,Midazolam potentiation (%),"[5]; 1000 nM MDZ + EC10 GABA, α5(P166T)",141.51 ± 25.59%
same,Max potentiation (%),"[5]; α5(P166T), Hill fit, midazolam 10-1000 nM + EC10 GABA",140.7 ± 23.7%
same,Hill coefficient,"[5]; α5(P166T), midazolam Hill fit",3.661 ± 1.897
same,Midazolam potentiation (%),α4β2γ2 GABAA receptor; 10 nM MDZ + EC10 GABA,10.98 ± 3.61%
same,Midazolam potentiation (%),α4β2γ2 GABAA receptor; 50 nM MDZ + EC10 GABA,13.30 ± 4.65%
same,Midazolam potentiation (%),α4β2γ2 GABAA receptor; 100 nM MDZ + EC10 GABA,15.15 ± 4.85%
same,Midazolam potentiation (%),α4β2γ2 GABAA receptor; 500 nM MDZ + EC10 GABA,15.98 ± 5.42%
same,Midazolam potentiation (%),α4β2γ2 GABAA receptor; 1000 nM MDZ + EC10 GABA,17.89 ± 4.82%
same,responsiveness to midazolam potentiation,α4β2γ2 GABAA receptor; wildtype α4β2γ2,no notable midazolam potentiation
